Measured values taken from PubChem BioAssay AID1963440 (Molecular Pharmacology Branch, DTP, NCI, 2024).
Values belong to the molecule of their own block, whether it stands above or below them.

System: NCI-H1417 complex spheroids, growth % test/control
Experiment: Anticancer human tumor NCI-H1417 cell line growth inhibition [Asc];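 note: spheroids exposed to compounds for 7 days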;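 for viability, T/C: 100% = DMSO vehicle control wells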
Conditions: for IC50: curve of first compound; for viability, T/C: stronger effect = lower value
Description: Multicellular complex tumor spheroid response to apoptosis pathway targeting inhibitors Alrizomadlin, Pelcitoclax, and Dasminapant in combination with a variety of drugs and investigational agents in selected tumor cell lines
The MDM2 inhibitor alrizomadlin, the Bcl-2/Bcl-xL inhibitor pelcitoclax, and the IAPs inhibitor dasminapant were evaluated both individually and in combination with standard of care and investigational anticancer small molecules within a complex spheroid model of solid tumors. . Complex spheroids include a stromal component modeled by human endothelial cells (HUVEC) and fibroblasts modeled by human mesenchymal stem cells (MSCs). The concentration ranges selected for each drug and investigational agent were based upon clinically achievable concentrations if the clinical Cmax of the agent was known.
Compounds. The drugs and investigational agents: alrizomadlin (APG-115; NSC831270), pelcitoclax (APG-1252; NSC835773), dasminapant (APG-1387;NSC834197), TAK-243 (NSC785004), copanlisib (NSC809693), olaparib (NSC753686), talazoparib (NSC767125), cobimetinib (NSC 768068), eltanexor (KPT-8602, NSC 794443), abemaciclib (NSC 768073), sotorasib (NSC818433), adagrasib (NSC 831453), MRTX-1133 (NSC 836407), Iadademestat (ORY1001, NSC 806812), and RMC-4630 (NSC839698), were obtained from the NCI Developmental Therapeutics Program Chemical Repository. The FDA-approved anticancer drug set is available from the Developmental Therapeutics Program at https://dtp.cancer.gov/organization/dscb/obtaining/available plates.htm. […] The stock solutions were prepared in dimethyl sulfoxide (DMSO, Sigma-Aldrich, St. Louis, MO, cat. D2650) at 800-fold the tested concentration and stored at -70 degrees C prior to their use. All drugs and investigational agents were tested over a range starting from a high concentration at or near the clinical Cmax and decreasing in half-log increments. If the clinical Cmax for an agent had not been determined, the highest concentration tested was 10 microM.
The patient-derived cancer (PDC) cell lines include five colon adenocarcinomas: 186277-243-T-J2-PDC, 616215-338-R-J1-PDC, 439559-082-T-J2-PDC, 463943-066-T-J2-PDC, and 519858-162-T-J1-PDC; three pancreatic carcinomas: 323965-272-R-J2-PDC, 521955-158-R6-J3-PDC, and 521955-158-R2-J5-PDC; two uterine sarcomas: 327498-152-R-J2-PDC and 993429-296-R-J1-PDC; two rhabdomyosarcomas: 755483-174-R-J1-PDC and 772245-204-R-J1-PDC; two soft tissue sarcomas: 126254-015-R-J1-PDC and 494315-158-R-J1-PDC; two malignant fibrous histiocytomas: 317291-083-R-J1-PDC and 596521-263-R-J1-PDC; two breast carcinomas: 171881-019-R-J1-PDC and 885512-296-R-J2-PDC; and one ovarian carcinoma: 6556581-035-R-J-PDC were obtained from the NCI PDMR, (https://pdmr.cancer.gov). The established cell lines HSSY-2 synovial sarcoma (RRID:CVCL 8719), SYO-1 synovial sarcoma (RRID:CVCL_7146), MPNST malignant peripheral neural sheath tumor were obtained from the Sloan Kettering Institute. The following established cell lines were purchased from the American Type Culture Collection (ATCC, Manassas, VA), Sor the received from the NCI repository:, PANC-1 pancreatic carcinoma (CRL-1469, RRID:CVCL_0480), OVCAR-5 ovarian carcinoma (RRID:CVCL_1628), OVCAR-8 ovarian carcinoma (RRID:CVCL_1629), , MCF-7 breast carcinoma (CRL-12584, RRID:CVCL_0031), MDA-MB-231 breast carcinoma (CRL-12532, RRID:CVCL_0062), NCI-H1876 small cell lung carcinoma (CRL-5902, RRID:CVCL_1503), NCI-H510A small cell lung carcinoma (HTB-184, RRID:CVCL_1565), NCI-H1417 (CRL-5869, RRID:CVCL_1469), and NCI-H196 small cell lung carcinoma (CRL-5823, RRID:CVCL_1509). Dr. Peter Houghton (Greehey Children's Cancer Research Institute, University of Texas Health Science Center, San Antonio, TX) provided Rh-18 rhabdomyosarcoma (RRID:CVCL_1659). Pooled donor human umbilical vein endothelial cells (HUVEC, Lonza, cat. CC-2519) and human mesenchymal stem cells (hMSC, Lonza, cat. PT-2501) were purchased from Lonza (Walkersville, MD).
Cell Culture. […]

[1] = second compound 0.03 µM, first compound 0.00316 µM
[2] = second compound 0.03 µM, first compound 0.01 µM
[3] = second compound 0.03 µM, first compound 0.0316 µM
[4] = second compound 0.03 µM, first compound 0.1 µM
[5] = second compound 0.0949 µM, first compound 0.00316 µM
[6] = second compound 0.0949 µM, first compound 0.01 µM
[7] = second compound 0.0949 µM, first compound 0.0316 µM
[8] = second compound 0.0949 µM, first compound 0.1 µM
[9] = second compound 0.3 µM, first compound 0.00316 µM
[10] = second compound 0.3 µM, first compound 0.01 µM
[11] = second compound 0.3 µM, first compound 0.0316 µM
[12] = second compound 0.3 µM, first compound 0.1 µM
[13] = second compound 0.949 µM, first compound 0.00316 µM
[14] = second compound 0.949 µM, first compound 0.01 µM
[15] = second compound 0.949 µM, first compound 0.0316 µM
[16] = second compound 0.949 µM, first compound 0.1 µM
[17] = second compound 3 µM, first compound 0.00316 µM
[18] = second compound 3 µM, first compound 0.01 µM
[19] = second compound 3 µM, first compound 0.0316 µM
[20] = second compound 3 µM, first compound 0.1 µM

IC50 (second compound 0.03 µM): > 1000 nM | IC50 (second compound 0.0949 µM): > 1000 nM | IC50 (second compound 0.3 µM): > 1000 nM | IC50 (second compound 0.949 µM): > 1000 nM | IC50 (second compound 3 µM): > 1000 nM
Compound: CCN1CCN(Cc2ccc(Nc3ncc(F)c(-c4cc(F)c5nc(C)n(C(C)C)c5c4)n3)nc2)CC1 + CCN1C(C(=O)NC23CCC(C(=O)O)(CC2)CC3)C(c2cccc(Cl)c2F)C2(C(=O)Nc3cc(Cl)ccc32)C12CCCCC2
viability, T/C [1]: 108% | viability, T/C [2]: 110% | viability, T/C [3]: 93.6% | viability, T/C [4]: 93.8% | viability, T/C (second compound 0.03 µM, first compound 0.316 µM): 97.8% | viability, T/C (second compound 0.03 µM, first compound 1 µM): 83% | viability, T/C [5]: 103% | viability, T/C [6]: 104% | viability, T/C [7]: 92.7% | viability, T/C [8]: 98.2% | viability, T/C (second compound 0.0949 µM, first compound 0.316 µM): 94% | viability, T/C (second compound 0.0949 µM, first compound 1 µM): 91.5% | viability, T/C [9]: 103% | viability, T/C [10]: 100% | viability, T/C [11]: 110% | viability, T/C [12]: 102% | viability, T/C (second compound 0.3 µM, first compound 0.316 µM): 95.7% | viability, T/C (second compound 0.3 µM, first compound 1 µM): 81.2% | viability, T/C [13]: 87.2% | viability, T/C [14]: 93.1% | viability, T/C [15]: 88.2% | viability, T/C [16]: 91.1% | viability, T/C (second compound 0.949 µM, first compound 0.316 µM): 88.8% | viability, T/C (second compound 0.949 µM, first compound 1 µM): 78.4% | viability, T/C [17]: 99.5% | viability, T/C [18]: 91.1% | viability, T/C [19]: 98.8% | viability, T/C [20]: 91.4% | viability, T/C (second compound 3 µM, first compound 0.316 µM): 83.8% | viability, T/C (second compound 3 µM, first compound 1 µM): 75.1%

IC50 (second compound 0.03 µM): 128 nM | IC50 (second compound 0.0949 µM): 104 nM | IC50 (second compound 0.3 µM): 100 nM | IC50 (second compound 0.949 µM): 102 nM | IC50 (second compound 3 µM): 59.1 nM
Compound: NC(=O)C(=Cn1cnc(-c2cc(C(F)(F)F)cc(C(F)(F)F)c2)n1)c1cncnc1 + CCN1C(C(=O)NC23CCC(C(=O)O)(CC2)CC3)C(c2cccc(Cl)c2F)C2(C(=O)Nc3cc(Cl)ccc32)C12CCCCC2
viability, T/C (second compound 0.03 µM, first compound 0.000949 µM): 95.9% | viability, T/C (second compound 0.03 µM, first compound 0.003 µM): 112% | viability, T/C (second compound 0.03 µM, first compound 0.00949 µM): 93.5% | viability, T/C (second compound 0.03 µM, first compound 0.03 µM): 96% | viability, T/C (second compound 0.03 µM, first compound 0.0949 µM): 59.7% | viability, T/C (second compound 0.03 µM, first compound 0.3 µM): 21.9% | viability, T/C (second compound 0.0949 µM, first compound 0.000949 µM): 96.7% | viability, T/C (second compound 0.0949 µM, first compound 0.003 µM): 101% | viability, T/C (second compound 0.0949 µM, first compound 0.00949 µM): 97.2% | viability, T/C (second compound 0.0949 µM, first compound 0.03 µM): 87% | viability, T/C (second compound 0.0949 µM, first compound 0.0949 µM): 52.9% | viability, T/C (second compound 0.0949 µM, first compound 0.3 µM): 18.9% | viability, T/C (second compound 0.3 µM, first compound 0.000949 µM): 97.7% | viability, T/C (second compound 0.3 µM, first compound 0.003 µM): 97% | viability, T/C (second compound 0.3 µM, first compound 0.00949 µM): 96.2% | viability, T/C (second compound 0.3 µM, first compound 0.03 µM): 87.3% | viability, T/C (second compound 0.3 µM, first compound 0.0949 µM): 51.6% | viability, T/C (second compound 0.3 µM, first compound 0.3 µM): 19.1% | viability, T/C (second compound 0.949 µM, first compound 0.000949 µM): 93.6% | viability, T/C (second compound 0.949 µM, first compound 0.003 µM): 96.3% | viability, T/C (second compound 0.949 µM, first compound 0.00949 µM): 85.1% | viability, T/C (second compound 0.949 µM, first compound 0.03 µM): 73.9% | viability, T/C (second compound 0.949 µM, first compound 0.0949 µM): 52.6% | viability, T/C (second compound 0.949 µM, first compound 0.3 µM): 18.8% | viability, T/C (second compound 3 µM, first compound 0.000949 µM): 97.5% | viability, T/C (second compound 3 µM, first compound 0.003 µM): 98.8% | viability, T/C (second compound 3 µM, first compound 0.00949 µM): 81.3% | viability, T/C (second compound 3 µM, first compound 0.03 µM): 67.9% | viability, T/C (second compound 3 µM, first compound 0.0949 µM): 38.1% | viability, T/C (second compound 3 µM, first compound 0.3 µM): 16.3%

IC50 (second compound 0.03 µM): > 100 nM | IC50 (second compound 0.0949 µM): > 100 nM | IC50 (second compound 0.3 µM): > 100 nM | IC50 (second compound 0.949 µM): > 100 nM | IC50 (second compound 3 µM): > 100 nM
Compound: NC1CCC(NC2CC2c2ccccc2)CC1 (stereo not given) + CCN1C(C(=O)NC23CCC(C(=O)O)(CC2)CC3)C(c2cccc(Cl)c2F)C2(C(=O)Nc3cc(Cl)ccc32)C12CCCCC2
viability, T/C (second compound 0.03 µM, first compound 0.000316 µM): 86% | viability, T/C (second compound 0.03 µM, first compound 0.001 µM): 73.9% | viability, T/C [1]: 74.5% | viability, T/C [2]: 71.3% | viability, T/C [3]: 78.6% | viability, T/C [4]: 73.1% | viability, T/C (second compound 0.0949 µM, first compound 0.000316 µM): 80.5% | viability, T/C (second compound 0.0949 µM, first compound 0.001 µM): 78.3% | viability, T/C [5]: 63.5% | viability, T/C [6]: 69.8% | viability, T/C [7]: 73.1% | viability, T/C [8]: 66% | viability, T/C (second compound 0.3 µM, first compound 0.000316 µM): 79.7% | viability, T/C (second compound 0.3 µM, first compound 0.001 µM): 64.8% | viability, T/C [9]: 65% | viability, T/C [10]: 61% | viability, T/C [11]: 63.8% | viability, T/C [12]: 62.5% | viability, T/C (second compound 0.949 µM, first compound 0.000316 µM): 78.3% | viability, T/C (second compound 0.949 µM, first compound 0.001 µM): 64.9% | viability, T/C [13]: 67.6% | viability, T/C [14]: 60.7% | viability, T/C [15]: 60.2% | viability, T/C [16]: 61.5% | viability, T/C (second compound 3 µM, first compound 0.000316 µM): 76.9% | viability, T/C (second compound 3 µM, first compound 0.001 µM): 65.9% | viability, T/C [17]: 62.4% | viability, T/C [18]: 59.2% | viability, T/C [19]: 55.3% | viability, T/C [20]: 67.5%
